Laboratory results: PMC8855934 (Journal of medicinal chemistry, 2021)
Substitutions are numbered along the chain they refer to.

Experiments:
[1] = Oral exposures in mice; format: in vivo; details: oral gavage, non-tumor-bearing male mice (Table S1)
[2] = target: T1, AR protein (Homo sapiens, UniProt P10275); assay: AR degradation in VCaP cell line; format: cell-based; details: for reduction of AR protein level (degradation kinetics) / Dmax: VCaP; for reduction of AR protein level (degradation kinetics): 1 h; for Dmax: read-out: Dmax, AR degradation in VCaP cell line, VCaP cell line, 24 h treatment, Western blotting
T1 sequence (P10275 1-920): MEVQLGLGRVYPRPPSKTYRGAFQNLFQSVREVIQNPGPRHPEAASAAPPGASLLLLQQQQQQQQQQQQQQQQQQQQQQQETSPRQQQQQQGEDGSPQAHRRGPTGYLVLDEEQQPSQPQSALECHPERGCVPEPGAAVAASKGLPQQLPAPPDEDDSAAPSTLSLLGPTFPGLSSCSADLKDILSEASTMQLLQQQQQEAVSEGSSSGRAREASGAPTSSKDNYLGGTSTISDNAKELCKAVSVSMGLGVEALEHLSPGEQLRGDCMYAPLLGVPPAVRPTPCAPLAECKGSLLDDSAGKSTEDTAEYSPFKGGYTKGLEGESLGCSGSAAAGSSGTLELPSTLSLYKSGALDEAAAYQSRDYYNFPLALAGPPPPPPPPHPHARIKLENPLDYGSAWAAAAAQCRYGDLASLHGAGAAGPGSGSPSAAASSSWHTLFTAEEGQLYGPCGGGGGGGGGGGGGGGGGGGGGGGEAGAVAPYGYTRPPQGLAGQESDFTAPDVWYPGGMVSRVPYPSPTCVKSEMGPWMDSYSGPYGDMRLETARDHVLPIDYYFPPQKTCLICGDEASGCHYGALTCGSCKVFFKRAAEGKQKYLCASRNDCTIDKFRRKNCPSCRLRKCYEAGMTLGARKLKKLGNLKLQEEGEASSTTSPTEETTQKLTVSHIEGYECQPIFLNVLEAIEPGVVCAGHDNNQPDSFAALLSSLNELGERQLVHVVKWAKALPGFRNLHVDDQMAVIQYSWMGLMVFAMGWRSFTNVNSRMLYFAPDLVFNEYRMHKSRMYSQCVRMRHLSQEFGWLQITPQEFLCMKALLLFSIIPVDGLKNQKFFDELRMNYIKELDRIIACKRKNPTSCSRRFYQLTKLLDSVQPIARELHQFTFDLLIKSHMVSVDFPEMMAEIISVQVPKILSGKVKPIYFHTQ

[3] = Pharmacokinetics in mice; format: in vivo; details: male, mouse, iv, 1 mg/kg
[4] = target: T2, AR T878A mutant protein (Homo sapiens, UniProt P10275, T878A); details: LNCaP, 1 h
T2 sequence (P10275 1-920 T878A): T1 sequence (P10275 1-920) with T878A

[5] = target: T1, AR protein; details: single oral administration 20 mg/kg, 6 and 24 h time-points, Western blotting

N#Cc1ccc(O[C@H]2CC[C@H](NC(=O)c3ccc(NCCCNc4ccc5c(c4)C(=O)N(C4CCC(=O)NC4=O)C5=O)cc3)CC2)cc1Cl (stereo partly drawn) [Compound 11, N-((1R,4R)-4-(3-Chloro-4-cyanophenoxy)cyclohexyl)-4-((3-((2-(2,6-dioxopiperidin-3-yl)-1,3-dioxoisoindolin-5-yl)amino)propyl)-amino)benzamide]
oral exposures in mice [1]: very low

N#Cc1ccc(O[C@H]2CC[C@H](NC(=O)c3ccc(NCCCCCNc4ccc5c(c4)C(=O)N(C4CCC(=O)NC4=O)C5=O)cc3)CC2)cc1Cl (stereo partly drawn) [Compound 13, N-((1R,4R)-4-(3-Chloro-4-cyanophenoxy)cyclohexyl)-4-((5-((2-(2,6-dioxopiperidin-3-yl)-1,3-dioxoisoindolin-5-yl)amino)pentyl)-amino)benzamide]
oral exposures in mice [1]: very low

N#Cc1ccc(O[C@H]2CC[C@H](NC(=O)c3ccc(N4CCC(N5CCN(c6ccc7c(c6)C(=O)N(C6CCC(=O)NC6=O)C7=O)CC5)CC4)cc3)CC2)cc1Cl (stereo partly drawn) [Compound 26, N-(1R,4R)-4-((3-Chloro-4-cyanophenoxy)cyclohexyl)-4-(4-(4-(2-(2,6-dioxopiperidin-3-yl)-1,3-dioxoisoindolin-5-yl)piperazin-1-yl)-piperidin-1-yl)benzamide]
reduction of AR protein level (degradation kinetics) [2]: effectively reduce | clearance ([3]; plasma): 0.4 L/h/kg | reduction of AR protein level (degradation kinetics) [4]: effectively reduce

N#Cc1ccc(O[C@H]2CC[C@H](NC(=O)c3ccc(N4CCN(CC5CN(c6ccc7c(c6)C(=O)N(C6CCC(=O)NC6=O)C7=O)C5)CC4)cc3)CC2)cc1Cl (stereo partly drawn) [Compound 27, N-(1R,4R)-4-((3-Chloro-4-cyanophenoxy)cyclohexyl)-4-(4-((l-(2-(2,6-dioxopiperidin-3-yl)-1,3-dioxoisoindolin-5-yl)azetidin-3-yl)-methyl)piperazin-1-yl)benzamide]
reduction of AR protein level (degradation kinetics) [2]: effectively reduce | reduction of AR protein level (degradation kinetics) [4]: effectively reduce

N#Cc1ccc(O[C@H]2CCC[C@H](NC(=O)c3ccc(N4CCC(N5CCN(c6ccc7c(c6)C(=O)N(C6CCC(=O)NC6=O)C7=O)CC5)CC4)cc3)CCC2)cc1Cl (stereo partly drawn) [Compound 31, N-(1R,5R)-5-((3-Chloro-4-cyanophenoxy)cyclooctyl)-4-(4-(4-(2-(2,6-dioxopiperidin-3-yl)-1,3-dioxoisoindolin-5-yl)piperazin-1-yl)-piperidin-1-yl)benzamide]
Dmax, AR degradation in VCaP cell line ([2]; VCaP cell line, 24 h treatment, Western blotting): 54%

N#Cc1ccc(OC2CCN(C(=O)c3ccc(N4CCC(N5CCN(c6ccc7c(c6)C(=O)N(C6CCC(=O)NC6=O)C7=O)CC5)CC4)cc3)CC2)cc1Cl (stereo not drawn) [Compound 32, 2-Chloro-4-((1-(4-(4-(4-(2-(2,6-dioxopiperidin-3-yl)-1,3-dioxoisoindolin-5-yl)piperazin-1-yl)piperidin-1-yl)benzoyl)piperidin-4-yl)-oxy)benzonitrile]
effect in reducing AR protein (in words) ([2]; VCaP cell line): little or no effect

N#Cc1ccc(O[C@@H]2CCCN(C(=O)c3ccc(N4CCC(N5CCN(c6ccc7c(c6)C(=O)N(C6CCC(=O)NC6=O)C7=O)CC5)CC4)cc3)CC2)cc1Cl (stereo partly drawn) [Compound 33]
effect in reducing AR protein (in words) ([2]; VCaP cell line): little or no effect

CN(c1ccc(C#N)c(Cl)c1)[C@H]1CC[C@H](NC(=O)c2ccc(N3CCC(N4CCN(c5ccc6c(c5)C(=O)N(C5CCC(=O)NC5=O)C6=O)CC4)CC3)cc2)CC1 (stereo partly drawn) [Compound 35]
clearance ([3]; plasma): 0.3 L/h/kg

CN(c1ccc(C#N)c(Cl)c1)[C@H]1CC[C@H](NC(=O)c2ccc(N3CCC(CN4CCN(c5ccc6c(c5)C(=O)N(C5CCC(=O)NC5=O)C6=O)CC4)CC3)cc2)CC1 (stereo partly drawn) [Compound 40, N-(1R,4R)-4-(((3-Chloro-4-cyanophenyl)(methyl)amino)-cyclohexyl)-4-(4-((4-(2-(2,6-dioxopiperidin-3-yl)-1,3-dioxoisoindolin-5-yl)piperazin-1-yl)methyl)piperidin-1-yl)benzamide]
reduction of AR protein level (degradation kinetics) [2]: effectively reduce | reduction of AR protein level (degradation kinetics) [4]: effectively reduce

CN(c1ccc(C#N)c(Cl)c1)[C@H]1CC[C@H](NC(=O)c2ccc(N3CCN(C4CCN(c5ccc6c(c5)C(=O)N(C5CCC(=O)NC5=O)C6=O)CC4)CC3)cc2)CC1 (stereo partly drawn) [Compound 41, N-(1R,4R)-4-(((3-Chloro-4-cyanophenyl)(methyl)amino)-cyclohexyl)-4-(4-(1-(2-(2,6-dioxopiperidin-3-yl)-1,3-dioxoisoindolin-5-yl)piperidin-4-yl)piperazin-1-yl)benzamide]
reduction of AR protein level (degradation kinetics) [2]: effectively reduce | reduction of AR protein level (degradation kinetics) [4]: effectively reduce | reduction of AR protein level in VCaP tumor tissue [5]: effective

CN(c1ccc(C#N)c(Cl)c1)[C@H]1CC[C@H](NC(=O)c2ccc(N3CC(CN4CCN(c5ccc6c(c5)C(=O)N(C5CCC(=O)NC5=O)C6=O)CC4)C3)cc2)CC1 (stereo partly drawn) [Compound 44, N-(1R,4R)-4-(((3-Chloro-4-cyanophenyl)(methyl)amino)-cyclohexyl)-4-(3-((4-(2-(2,6-dioxopiperidin-3-yl)-1,3-dioxoisoindolin-5-yl)piperazin-1-yl)methyl)azetidin-1-yl)benzamide]
reduction of AR protein level (degradation kinetics) [2]: effectively reduce | reduction of AR protein level (degradation kinetics) [4]: effectively reduce

CN(c1ccc(C#N)c(Cl)c1)[C@H]1CC[C@H](NC(=O)c2ccc(N3CC(N4CCN(c5ccc6c(c5)C(=O)N(C5CCC(=O)NC5=O)C6=O)CC4)C3)cc2)CC1 (stereo partly drawn) [Compound 45, N-(1R,4R)-4-(((3-Chloro-4-cyanophenyl)(methyl)amino)-cyclohexyl)-4-(3-(4-(2-(2,6-dioxopiperidin-3-yl)-1,3-dioxoisoindolin-5-yl)piperazin-1-yl)azetidin-1-yl)benzamide]
reduction of AR protein level (degradation kinetics) [2]: effectively reduce | Vd ([3]; in vivo): 1.8 to 2.1 L/kg | clearance ([3]; in vivo): 0.2 to 0.3 L/h/kg | half-life ([3]; in vivo): 5.5 to 7.5 h | clearance ([3]; plasma): 0.2 L/h/kg | reduction of AR protein level (degradation kinetics) [4]: effectively reduce | reduction of AR protein level in VCaP tumor tissue [5]: effective

CC(O)(CS(=O)(=O)c1ccc(N2CCN(C3CCN(c4ccc5c(c4)C(=O)N(C4CCC(=O)NC4=O)C5=O)CC3)CC2)cc1)C(=O)Nc1ccc(C#N)c(C(F)(F)F)c1 (stereo not drawn) [Compound 46, N-(4-Cyano-3-(trifluoromethyl)phenyl)-3-((4-(4-(1-(2-(2,6-dioxopiperidin-3-yl)-1,3-dioxoisoindolin-5-yl)piperidin-4-yl)piperazin-1-yl)phenyl)sulfonyl)-2-hydroxy-2-methylpropanamide]
Dmax [2]: < 32%

N#Cc1ncc(N2C(=O)C3(CCC3)N(c3ccc(C(=O)N4CCN(C5CCN(c6ccc7c(c6)C(=O)N(C6CCC(=O)NC6=O)C7=O)CC5)CC4)c(F)c3)C2=S)cc1C(F)(F)F (stereo not drawn) [Compound 48, 5-(5-(4-(4-(1-(2-(2,6-Dioxopiperidin-3-yl)-1,3-dioxoisoindolin-5-yl)piperidin-4-yl)piperazine-1-carbonyl)-3-fluorophenyl)-8-oxo-6-thioxo-5,7-diazaspiro[3.4]octan-7-yl)-3-(trifluoromethyl)-picolinonitrile]
Dmax [2]: < 32%
